How the values were obtained:
Format in all cases: in vivo, human
[1] = MBT absorption of PA and HA prior to Orlistat in fifteen healthy subjects; details: PA 2.5 grams and THA 8.0 grams, FIG. 10, 11
Excerpt: Fifteen healthy adult subject volunteers (9 women) 18 to 50 years of age were recruited through local advertisements. Exclusion criteria included: any chronic illness known to affect nutrient absorption, body mass index (BMI) of less than 21 or greater than 30 kg/m^2 (i.e., outside of generally accepted healthy adult ranges), therapy with lipid lowering drugs, diabetes mellitus (NIDDM, IDDM) and disorders associated with altered energy metabolism (e.g., hypothyroidism). This adult age range was selected because Orlistat is FDA approved in adults. In addition, adults are able to plan the experimental days for cooperation with four days of the research study diet, outpatient 72-hour stool collection and phlebotomy requirements. […]
Subjects underwent a 12-hour fast from 2100 hours on day #1 of the study. […] Upon arrival at the study center on the morning of day #2, subjects had their weight and height measured, and an experienced phlebotomist inserted a self-retaining intravenous catheter with a heparin lock for serial blood sampling. […] The number and timing of blood samples was determined by the experiments in Example 1, and was expected to be six or fewer samples over an eight-hour or less time period. […]

[2] = Malabsorption Blood Test (MBT): serum levels of PA and HA after oral PA and THA test breakfast meal in healthy control subjects
Protocol: (§1) Both whole post-absorptive serum and isolated chylomicron fractions of the serum are analyzed for fatty acid composition. Chylomicrons are isolated from plasma by centrifugation at d=1.006 g/ml for 30 minutes at 26,000 g (Hatch, F. T., et al., 1968; Adv. Lipid Res., 6:1-68). Total lipids are extracted from each specimen following the method of Bligh and Dyer (Bligh, E. G., et al., 1959; Can. J. Biochem., 37:911-917). Following transmethylation of the lipid extracts using BF3-methanol, fatty acid composition is determined using gas-liquid chromatographic (GLC) analysis using a Hewlett Packard GLC equipped with a flame ionization detector, an automatic 7673 sampler and […]×0.25 mm ID column composed of a 0.20 micron film of SP-2560 (Supelco, Bellefonte, Pa.) (Morrison, W., et al., 1964; J. Lipid Res. 5:600-608). The temperature is programmed to change from 140° C. to 240° C. at a rate of 4° C./minute. At the time of extraction, heptadecanoic methyl ester is added as an internal standard.
Healthy control subjects between 18 and 50 years of age were selected. Exclusion criteria included: any chronic illness known to affect nutrient absorption, body mass index (BMI) <21 or >30 kg/m^2 (generally accepted healthy adult ranges), therapy with lipid lowering drugs, diabetes mellitus (NIDDM and IDDM), disorders associated with altered energy metabolism (e.g., hypothyroidism) and disinterest in participating in all three dosing experiments. This adult age range was selected for several reasons: (a) adult subjects are likely to remain committed to all three components of the study; (b) adults will understand the need to provide reliable feedback on taste and tolerance of the test breakfast meal and the entire malabsorption test procedure; and (c) adult subjects are able to plan the experimental day for full cooperation with the multiple phlebotomy events from 0700 to 1500 hours.
Upon arrival at the study center, subjects had their weight and height measured and an experienced phlebotomist inserted a self-retaining intravenous catheter with a heparin lock for serial blood sampling. After initially drawing 2 milliliters of blood into a sterile syringe, the experimental blood sample (2 milliliters) was drawn and immediately stored in a 4-milliliter serum separator tube. Thereafter, the initial 2 milliliters of blood was infused back into the catheter followed by 2 milliliters of heparin flush. After the baseline blood samples were obtained, the subjects drank an approximately 8 to 12 ounce liquid test breakfast meal. This meal contained one to three doses of PA and THA in a random distribution. Subjects were asked to consume the test breakfast meal within five minutes. Thereafter, serial blood samples were obtained at regular intervals over a period ranging from 30 minutes to 24 hours. During the initial eight-hour period, subjects were permitted to ingest non-caloric and non-caffeinated beverages. A study protocol lunch of known fat content was provided and actual food intake was recorded. Ambulation was limited to maintain adherence to the 30 to 60 minute intervals in the blood sampling schedule. After completion of the blood sampling, the catheter was removed, a snack was offered, and the subjects were encouraged to consume a full meal. The lipid doses (mg/kg) of PA and THA used in this experiment were based on doses 10-fold higher than similar fats used to correct essential fatty acid deficiency in cystic fibrosis, and previous studies which used ^13C […] to qualitatively assess fat malabsorption in pancreatic disease (Rosenlund, M. L., et al., 1977;Pediatrics, 59:428-32; Wutzke, K. D., et al., 1999; J. Pediatr. Gastroenterol. Nutr., 29:148-54).
Four healthy control subjects were administered a dose of 30 mg/kg PA and 30 mg/kg THA in the digestible composition (a liquid breakfast shake) after a 12-hour fast. Blood was drawn at baseline before consumption of the shake and then every 30 minutes thereafter until hour 6. […]

[3] = MBT serum levels of PA and HA in subjects with CF and pancreatic insufficiency on and off pancreatic enzymes
Protocol: as §1
Subjects with CF and pancreatic insufficiency currently treated with pancreatic enzymes, aged greater than 8 years were recruited. Exclusion criteria included: forced expiratory volume of the lungs at 1 second (FEV1) <40%, a history of fibrosing colonopathy or significant bowel resection (>10 cm), mental retardation, significant neurological deficit, developmental disability and autism. Subjects are in their usual state of good health. This age range was selected because it includes children during active growth where information regarding degree of malabsorption leads to improved nutritional intervention and pancreatic enzyme therapy. Also, children greater than 8 years of age are mature enough to provide assent and feedback concerning acceptability and tolerance of the MBT.
In the experiments shown in FIGS. 12 through 15, three subjects with CF were given either 30 mg/kg PA and 60 mg/kg THA (2 subjects) or 30 mg/kg PA and 90 mg/kg THA (1 subject) in a digestible composition consisting of a liquid breakfast shake after a 12 hour fast. The subjects were tested while they were taking their usual doses of pancreatic enzymes and then were tested again (more than one week later) when they were not taking pancreatic enzymes. Blood was sampled at baseline and then at hourly intervals from 2 to 8 hours and then sampled again at 24 hours. Subjects were fed a prepared lunchtime meal with a known quantity of fat (80 grams). The individual results for fat absorption for the 3 subjects with CF on enzymes are presented in FIG. 12 for PA and FIG. 13 for HA. For the same 3 subjects with CF off enzymes, the results for fat absorption are presented in FIG. 14 for PA and FIG. 15 for HA.
Additional experiments were performed on six subjects with CF either on or off pancreatic enzyme treatment. The serum levels of PA and HA in these six subjects on and off pancreatic enzyme treatment are presented in FIG. 16 anf FIG. 17, respectively.

[4] = four healthy control subjects, 30 mg/kg PA and 60 mg/kg THA, FIG. 3A, 4, 5A
[5] = four healthy control subjects, 30 mg/kg PA and 90 mg/kg THA, FIG. 6-8

CCCCCCCCCCCCCCC(=O)O [PA, pentadecanoic acid]
average absorption [1]: approximately 65%
delay before rise in serum concentration ([2]; four healthy control subjects, 30 mg/kg PA and 30 mg/kg THA, liquid breakfast shake after 12-hour fast, FIG. 2): approximately half
time at which increase in serum level is evident / begins [2, 4]: ≤ 2 h
time of peak serum level [2, 4]: 6 h
time at which increase in serum level is evident [2, 5]: ≤ 2 h
time of peak serum level [2, 5]: 6 h
peak serum level ([2]; four healthy control subjects, 30 mg/kg PA and either 60 or 90 mg/kg THA oral at baseline, FIG. 1 model): approximately 4 mg/dL
time of peak serum level ([2]; four healthy control subjects, 30 mg/kg PA and either 60 or 90 mg/kg THA oral, FIG. 1 model): six
concentration at 8 h ([2]; human, serum, four healthy control subjects, 30 mg/kg PA and either 60 or 90 mg/kg THA oral, FIG. 1 model, read-out: serum level by eight hours post dose): ~10000 ng/mL
pattern of serum response ([2]; six healthy volunteers, PA 2.5 grams and THA 5.0 or 8.0 grams, FIG. 3B): increasing over the first two hours and remaining elevated through hour six
hour by which serum levels increased ([3]; subjects with CF off pancreatic enzymes): ≤ 2 h
hour by which increase in absorption was evident ([3]; subjects with CF on pancreatic enzymes): ≤ 2 h
serum levels compared with healthy control subjects ([3]; subjects with CF taking pancreatic enzymes): lower

Reference: patent US20030086869A1, “Methods and kits for diagnosing a pancreatic-based fat malabsorption disorder” (priority 2001, published 2003)
